Reference: US20240216392A1, “METHODS OF TREAMENT” (Arena Pharmaceuticals, Inc., priority 2022, published 2024)
Like-named read-outs stand apart in the source and are kept apart here.

Key:
[1] = Phase 1 multiple-dose study, plasma PK; assay type: in vivo, human; details: both sexes, human, plasma, oral; for Tmax: read-out: Plasma Tmax, median (minimum, maximum); for AUC: read-out: Plasma AUCtau, geometric mean (geometric CV %); for Cmax: read-out: Plasma Cmax, geometric mean (geometric CV %); for AUC(0-inf): read-out: plasma geometric mean AUC0-inf
Procedure: Subjects were enrolled to 1 of 2 dosage regimens. Subject enrollment was stratified by sex to ensure approximate sex balance in each cohort.
Morning doses were administered following a standard light breakfast (e.g., milk and cereal, toast, and fruit) on all days. TID dosing (three times a day) was approximately 8 hours apart. Subjects fasted from midnight onwards, until the morning breakfast each day. There was no fluid restriction during the study, but subjects should not have consumed excessive amounts of fluid on any day.
The Phase 1, open-label, multiple-dose study of Example 1 was conducted for Cohorts 1-3, 4A, and 4B.
Morning doses were administered following a standard light breakfast (e.g., milk and cereal, toast, and fruit) on all days. TID dosing (three times a day) was approximately 8 hours apart, and BID dosing (two times a day) was 12 hours apart. Subjects fasted from midnight onwards, until the morning breakfast each day. There was no fluid restriction during the study, but subjects were not to consume excessive amounts of fluid on any day.

[2] = safety and tolerability, Phase 1 study; assay type: in vivo, human
Procedure: (§1) For Cohorts 1 and 2, the study consisted of a Screening period (Day −28 to −2), an on-site period from Day −1 to Day 16 and a 10-day postdosing follow-up visit (Day 25). Subjects were admitted to the clinic on Day −1 of the assessment period and remained confined to the clinic until completion of the assessment period (or longer if the Investigator deemed it is clinically indicated for safety follow-up). Safety was assessed continuously from signing of informed consent form through follow up visit. Safety assessments including cardiac troponins, vital signs, 12-lead ECGs (electrocardiograms) were performed at screening and daily from Day −1 to Day 16, and follow-up. C-SSRS (Columbia-suicide severity rating scale) was assessed at screening, Days −1, 11, 16, and 25.
as §1, with “all cohorts,” for “Cohorts 1 and 2,”, “Safety assessments including cardiac troponins, vital signs, 12-lead ECGs (electrocardiograms) were performed at screening and daily from Day −1 to Day 16, and follow-up.” left out

[3] = tested on: UGT metabolic pathway and renal transporters; details: single 12 mg dose with probenecid/cimetidine vs alone
[4] = 12 mg, Day 8, Cohort 3 (12 mg BID)
[5] = 12 mg, Day 9, Cohort 2 (12 mg TID)
[6] = 12 mg, Day 9, Cohort 3 (12 mg BID)
[7] = 12 mg, Day 10, Cohort 2 (12 mg TID)
[8] = 12 mg, Day 10, Cohort 3 (12 mg BID)
[9] = 15 mg, Day 8, Cohort 4A (15 mg BID)
[10] = 15 mg, Day 9, Cohort 4A (15 mg BID)
[11] = 15 mg, Day 10, Cohort 4A (15 mg BID)
[12] = 18 mg, Day 8, Cohort 4B (18 mg BID)
[13] = 18 mg, Day 9, Cohort 4B (18 mg BID)
[14] = 18 mg, Day 10, Cohort 4B (18 mg BID)

C[C@H]1CN2CCNCc3ccc(C(=O)NCC(F)F)c1c32 [Compound 1, (R)—N-(2,2-difluoroethyl)-7-methyl-1,2,3,4,6,7-hexahydro-[1,4]diazepino[6,7,1-hi]indole-8-carboxamide]
half-life ([1]; 12 mg, Day 8, Cohort 2 (12 mg TID), read-out: Plasma T1/2, mean (SD) (converted)): 4.74 h
Tmax ([1]; 12 mg, Day 8, Cohort 2 (12 mg TID)): 1.01 h
AUC [1, 4]: 156 ng·h/mL
Cmax [1, 4]: 30.3 ng/mL
half-life ([1]; 12 mg, Day 8, Cohort 3 (12 mg BID), read-out: Plasma T1/2, mean (SD) (converted)): 4.32 h
Tmax [1, 4]: 1.01 h
AUC [1, 5]: 194 ng·h/mL
Cmax [1, 5]: 44.5 ng/mL
half-life ([1]; 12 mg, Day 9, Cohort 2 (12 mg TID), read-out: Plasma T1/2, mean (SD) (converted)): 4.79 h
Tmax [1, 5]: 0.92 h
AUC [1, 6]: 163 ng·h/mL
Cmax [1, 6]: 37.2 ng/mL
half-life ([1]; 12 mg, Day 9, Cohort 3 (12 mg BID), read-out: Plasma T1/2, mean (SD) (converted)): 4.58 h
Tmax [1, 6]: 0.93 h
AUC [1, 7]: 196 ng·h/mL
Cmax [1, 7]: 39.8 ng/mL
half-life ([1]; 12 mg, Day 10, Cohort 2 (12 mg TID), read-out: Plasma T1/2, mean (SD) (converted)): 4.08 h
Tmax [1, 7]: 1.02 h
AUC [1, 8]: 154 ng·h/mL
Cmax [1, 8]: 31.3 ng/mL
half-life ([1]; 12 mg, Day 10, Cohort 3 (12 mg BID), read-out: Plasma T1/2, mean (SD) (converted)): 3.54 h
Tmax [1, 8]: 1 h
AUC [1, 9]: 194 ng·h/mL
Cmax [1, 9]: 44.8 ng/mL
half-life ([1]; 15 mg, Day 8, Cohort 4A (15 mg BID), read-out: Plasma T1/2, mean (SD) (converted)): 5.36 h
Tmax [1, 9]: 0.55 h
AUC [1, 10]: 208 ng·h/mL
Cmax [1, 10]: 50.2 ng/mL
half-life ([1]; 15 mg, Day 9, Cohort 4A (15 mg BID), read-out: Plasma T1/2, mean (SD) (converted)): 5.51 h
Tmax [1, 10]: 0.57 h
AUC [1, 11]: 193 ng·h/mL
Cmax [1, 11]: 40.9 ng/mL
half-life ([1]; 15 mg, Day 10, Cohort 4A (15 mg BID), read-out: Plasma T1/2, mean (SD) (converted)): 3.72 h
Tmax [1, 11]: 1.06 h
AUC [1, 12]: 230 ng·h/mL
Cmax [1, 12]: 43.2 ng/mL
half-life ([1]; 18 mg, Day 8, Cohort 4B (18 mg BID), read-out: Plasma T1/2, mean (SD) (converted)): 5.51 h
Tmax [1, 12]: 0.99 h
AUC [1, 13]: 242 ng·h/mL
Cmax [1, 13]: 47.7 ng/mL
half-life ([1]; 18 mg, Day 9, Cohort 4B (18 mg BID), read-out: Plasma T1/2, mean (SD) (converted)): 4.3 h
Tmax [1, 13]: 0.5 h
AUC [1, 14]: 224 ng·h/mL
Cmax [1, 14]: 53 ng/mL
half-life ([1]; 18 mg, Day 10, Cohort 4B (18 mg BID), read-out: Plasma T1/2, mean (SD) (converted)): 3.51 h
Tmax [1, 14]: 1 h
half-life ([1]; steady state, read-out: half-life at steady state (converted)): ~5 h
AUC(0-inf) ([1]; Day 1, single 3 mg dose, Cohort 1): 21.3 ng·h/mL
AUC(0-inf) ([1]; Day 1, single 6 mg dose, Cohorts 2, 3, 4A, 4B): 36.5 to 51.9 ng·h/mL
safety and tolerability ([2]; Cohorts 1 and 2): Favorable safety and tolerability results
safety and tolerability ([2]; all cohorts): Favorable safety and tolerability results
increase in Compound 1 exposure [3]: ~80%
